The values below come from the supplement of paper PMC11281043.

± gives the standard deviation of the averaged measurements.

Assay [1] has as its system Danio rerio embryo/larva. In words: max % larvae with craniofacial defects across tested concentrations; higher = more toxic; extreme values may be limits of the assay. The settings on record: exposure: 6-8 hpf to 5 dpf, scored at 6 dpf.
In assay [2] the test system is Danio rerio embryo/larva. Kind of assay: max % larvae with edema across tested concentrations; higher = more toxic; extreme values may be limits of the assay. Conditions: exposure: 6-8 hpf to 5 dpf, scored at 6 dpf.
Assay [3] concerns Danio rerio embryo/larva. In words: max % larvae with abnormal position across tested concentrations; higher = more toxic; extreme values may be limits of the assay. The settings on record: exposure: 6-8 hpf to 5 dpf, scored at 6 dpf.
The subject of assay [4] is Danio rerio embryo/larva. In words: BMC general abnormality; higher = less potent. The settings on record: exposure: 6-8 hpf to 5 dpf, scored at 6 dpf. How it is done: (§1)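 Zebrafish embryos (with chorion) were exposed from 6-8 hpf to each PFAS (8-point half-log series, top concentration up to 100 uM, 0.4% DMSO, sealed plates, 26 C; n = 6 embryos per concentration), rinsed at 5 dpf and scored at 6 dpf by two blinded observers for mortality, hatching and malformations. Endpoint scores are the % of living larvae affected (dead larvae excluded; […]). Curves were fitted with tcpl (cutoff 16%), and the BMC is the concentration at a benchmark response of 21.6%.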

Assay [5] has as its system Danio rerio embryo/larva. In words: max % larvae generally abnormal across tested concentrations; higher = more toxic; extreme values may be limits of the assay. The settings on record: exposure: 6-8 hpf to 5 dpf, scored at 6 dpf.
Assay [6] deals with Danio rerio embryo/larva. Kind of assay: max % larvae with uninflated swim bladder across tested concentrations; higher = more toxic; extreme values may be limits of the assay. The settings on record: exposure: 6-8 hpf to 5 dpf, scored at 6 dpf.
Assay [7] relates to Danio rerio embryo/larva. Kind of assay: max % larvae with spinal defects across tested concentrations; higher = more toxic; extreme values may be limits of the assay. The settings on record: exposure: 6-8 hpf to 5 dpf, scored at 6 dpf.
Assay [8] concerns Danio rerio embryo/larva. Kind of assay: max % larvae with blood pooling across tested concentrations; higher = more toxic; extreme values may be limits of the assay. The settings on record: exposure: 6-8 hpf to 5 dpf, scored at 6 dpf.
In assay [9] the test system is Danio rerio embryo/larva. In words: max % larvae with pigmentation defects across tested concentrations; higher = more toxic. The settings on record: exposure: 6-8 hpf to 5 dpf, scored at 6 dpf.
In assay [10] the test system is Danio rerio embryo/larva. Kind of assay: max % larvae with tail defects across tested concentrations; higher = more toxic; extreme values may be limits of the assay. Conditions: exposure: 6-8 hpf to 5 dpf, scored at 6 dpf.
Assay [11] deals with Danio rerio embryo/larva. Kind of assay: BMC edema; higher = less potent. Conditions: max tested concentration (log10 uM): 2; exposure: 6-8 hpf to 5 dpf, scored at 6 dpf. How it is done:
as §1

The subject of assay [12] is Danio rerio embryo/larva. Kind of assay: max % larvae unhatched across tested concentrations; max tested concentration (log10 uM): 2; higher = more toxic. The settings on record: exposure: 6-8 hpf to 5 dpf, scored at 6 dpf.
The subject of assay [13] is Danio rerio embryo/larva. In words: BMC swim bladder non-inflation; higher = less potent. Conditions: max tested concentration (log10 uM): 2; exposure: 6-8 hpf to 5 dpf, scored at 6 dpf. How it is done: as §1
For assay [14], the system named is Danio rerio embryo/larva. Kind of assay: BMC any abnormality; max tested concentration (log10 uM): 2; higher = less potent. The settings on record: exposure: 6-8 hpf to 5 dpf, scored at 6 dpf. How it is done:
as §1

Assay [15] has as its system Danio rerio embryo/larva. Kind of assay: max % larvae with any abnormality across tested concentrations; max tested concentration (log10 uM): 2; higher = more toxic; extreme values may be limits of the assay. The settings on record: exposure: 6-8 hpf to 5 dpf, scored at 6 dpf.
The subject of assay [16] is Danio rerio embryo/larva. Kind of assay: max % larvae dead across tested concentrations; max tested concentration (log10 uM): 2; higher = more toxic; extreme values may be limits of the assay. The settings on record: exposure: 6-8 hpf to 5 dpf, scored at 6 dpf.

Regarding `FC(F)(I)C(F)(F)C(F)(F)C(F)(F)C(F)(F)C(F)(F)I` [1,6-Diiodoperfluorohexane] (max tested concentration (log10 uM): 2), the max % larvae in the assay on Danio rerio embryo/larva [1] is 90%; with Danio rerio embryo/larva [2], 67.5 ± 3.5%; in the assay on Danio rerio embryo/larva [3], 54.6 ± 0.59%; with Danio rerio embryo/larva [6], 100%; in the assay with Danio rerio embryo/larva [7], 33.3 ± 18%; with Danio rerio embryo/larva [8], 56.7 ± 33%. Further, the max % larvae is 10 ± 14% in the assay on Danio rerio embryo/larva [9] and 7.5 ± 11% with Danio rerio embryo/larva [10]. For the same compound, the BMC general abnormality in the assay with Danio rerio embryo/larva [4] was found to be 4.24 ± 2.6 µM. The “max % larvae generally abnormal across tested concentrations” value in the assay with Danio rerio embryo/larva [5] turned out to be 95 ± 7.1%.

`FC(F)(F)C(F)(F)C(F)(F)C(F)(F)C(F)(F)CCI` [1-Iodo-1H,1H,2H,2H-perfluoroheptane] had a BMC edema in the assay on Danio rerio embryo/larva [11] of 31.5 µM. Besides, in the assay on Danio rerio embryo/larva [12], the “max % larvae unhatched across tested concentrations” value came to 0%. Besides, the “BMC swim bladder non-inflation” value in the assay with Danio rerio embryo/larva [13] amounted to 31.5 µM. This compound registered a BMC any abnormality with Danio rerio embryo/larva [14] of 29.3 µM. The same compound returned a max % larvae with Danio rerio embryo/larva [15] of 72.9%.

For the compound `FC(F)(F)C(F)(F)C(F)(F)C(F)(F)C(F)(F)C(F)(F)C(F)(F)I` [1-Iodopentadecafluoroheptane], in the assay with Danio rerio embryo/larva [16], the “max % larvae dead across tested concentrations” value was found to be 16.7%. Moreover, the “max % larvae unhatched across tested concentrations” value in the assay on Danio rerio embryo/larva [12] stood at 0%. Further, the “BMC swim bladder non-inflation” value with Danio rerio embryo/larva [13] amounted to 56.7 µM. Moreover, the BMC any abnormality in the assay on Danio rerio embryo/larva [14] amounted to 10.9 µM. Also, the max % larvae in the assay with Danio rerio embryo/larva [15] is 83.3%.

Turning to `C=C(C)C(=O)OCC(F)(F)C(F)(F)C(F)(F)C(F)F` [1H,1H,5H-Perfluoropentyl methacrylate], the “max % larvae dead across tested concentrations” value in the assay on Danio rerio embryo/larva [16] turned out to be 66.7%. For the same compound, the “max % larvae unhatched across tested concentrations” value with Danio rerio embryo/larva [12] is 0%. This compound returned a BMC any abnormality with Danio rerio embryo/larva [14] of 27.9 µM. This compound displayed a max % larvae in the assay on Danio rerio embryo/larva [15] of 66.7%.

`Cc1ccc(S(=O)(=O)OCC(F)(F)C(F)(F)C(F)(F)C(F)(F)C(F)(F)C(F)F)cc1` [1H,1H,7H-Perfluoroheptyl 4-methylbenzenesulfonate]: the “max % larvae dead across tested concentrations” value with Danio rerio embryo/larva [16] worked out at 0%. In the assay with Danio rerio embryo/larva [12], the “max % larvae unhatched across tested concentrations” value stood at 0%. Also, the “BMC swim bladder non-inflation” value with Danio rerio embryo/larva [13] came out at 8.97 µM. The same compound gave a BMC any abnormality with Danio rerio embryo/larva [14] of 20.3 µM. The same compound yielded a max % larvae with Danio rerio embryo/larva [15] of 75%.

For `NCC(F)(F)C(F)(F)C(F)(F)C(F)(F)C(F)(F)C(F)(F)F` [1H,1H-Perfluoroheptylamine], in the assay on Danio rerio embryo/larva [16], the “max % larvae dead across tested concentrations” value is 0%. The same compound came in with a BMC edema in the assay with Danio rerio embryo/larva [11] of 79.2 µM. For the same compound, in the assay with Danio rerio embryo/larva [12], the “max % larvae unhatched across tested concentrations” value is 0%. In the assay with Danio rerio embryo/larva [14], this compound yielded a BMC any abnormality of 79.2 µM. In the assay on Danio rerio embryo/larva [15], this compound gave a max % larvae of 33.3%.

Turning to `NCC(F)(F)C(F)(F)C(F)(F)C(F)(F)C(F)(F)C(F)(F)F` [1H,1H-Perfluoroheptylamine] (max tested concentration (log10 uM): 2), the max % larvae in the assay with Danio rerio embryo/larva [1] worked out at 0%; in the assay on Danio rerio embryo/larva [2] it was 33.3%; in the assay on Danio rerio embryo/larva [6], 0%; with Danio rerio embryo/larva [7], 0%; with Danio rerio embryo/larva [8], 0%; with Danio rerio embryo/larva [9], 0%. In addition, in the assay on Danio rerio embryo/larva [10], the max % larvae is 0%. Also, the BMC general abnormality in the assay on Danio rerio embryo/larva [4] turned out to be 79.2 µM. Moreover, the “max % larvae generally abnormal across tested concentrations” value with Danio rerio embryo/larva [5] worked out at 33.3%.

For the compound `C=CC(=O)OCCC(F)(F)C(F)(F)C(F)(F)C(F)(F)F` [2-(Perfluorobutyl)ethyl acrylate], in the assay with Danio rerio embryo/larva [12], the “max % larvae unhatched across tested concentrations” value was 0%. Also, the “BMC swim bladder non-inflation” value with Danio rerio embryo/larva [13] came to 75.7 µM. The BMC any abnormality in the assay with Danio rerio embryo/larva [14] is 26.3 µM. The max % larvae with Danio rerio embryo/larva [15] stood at 100%.

`O=P(O)(O)CCC(F)(F)C(F)(F)C(F)(F)C(F)(F)C(F)(F)C(F)(F)F` [2-(Perfluorohexyl)ethylphosphonic acid] had a BMC edema with Danio rerio embryo/larva [11] of 22.5 µM. The “max % larvae unhatched across tested concentrations” value in the assay on Danio rerio embryo/larva [12] came out at 0%. Moreover, the BMC any abnormality with Danio rerio embryo/larva [14] turned out to be 21.9 µM. Further, the max % larvae in the assay with Danio rerio embryo/larva [15] is 95.8%.

With `O=C(O)CCC(F)(F)C(F)(F)C(F)(F)F` [3:3 Fluorotelomer carboxylic acid], in the assay with Danio rerio embryo/larva [16], the “max % larvae dead across tested concentrations” value was determined as 0%. Besides, the “max % larvae unhatched across tested concentrations” value in the assay with Danio rerio embryo/larva [12] amounted to 0%. The BMC any abnormality in the assay on Danio rerio embryo/larva [14] amounted to 87.8 µM. Further, in the assay with Danio rerio embryo/larva [15], the max % larvae came out at 25%.

Regarding `OCC(F)(F)C(F)(F)C(F)(F)C(F)(F)C(F)(F)C(F)(F)F` [6:1 Fluorotelomer alcohol], the BMC edema with Danio rerio embryo/larva [11] was determined as 94.1 µM. Moreover, the “max % larvae unhatched across tested concentrations” value in the assay with Danio rerio embryo/larva [12] worked out at 0%. Besides, in the assay with Danio rerio embryo/larva [14], the BMC any abnormality was 73.3 µM. For the same compound, the max % larvae with Danio rerio embryo/larva [15] is 75%.

Consider `OCCCC(F)(F)C(F)(F)C(F)(F)C(F)(F)C(F)(F)C(F)(F)C(F)(F)F` [7:3 Fluorotelomer alcohol], for which the “max % larvae unhatched across tested concentrations” value in the assay with Danio rerio embryo/larva [12] is 0%. Further, the “BMC swim bladder non-inflation” value with Danio rerio embryo/larva [13] was 99 µM. The BMC any abnormality with Danio rerio embryo/larva [14] worked out at 38.3 µM. The compound also had a max % larvae with Danio rerio embryo/larva [15] of 45.8%.

Regarding `FC(F)C(F)(F)COCC1CO1` (centres undefined) [((2,2,3,3-Tetrafluoropropoxy)methyl)oxirane], the “max % larvae dead across tested concentrations” value in the assay with Danio rerio embryo/larva [16] turned out to be 0%. This compound also showed a BMC edema in the assay on Danio rerio embryo/larva [11] of 32.6 µM. In the assay on Danio rerio embryo/larva [12], the “max % larvae unhatched across tested concentrations” value was found to be 0%. For the same compound, the “BMC swim bladder non-inflation” value with Danio rerio embryo/larva [13] is 27.7 µM. Further, in the assay on Danio rerio embryo/larva [14], the BMC any abnormality amounted to 26.5 µM. The max % larvae in the assay with Danio rerio embryo/larva [15] worked out at 91.7%.
